Results on one compound are retold here after ChEMBL document CHEMBL5226326, “Discovery of 1-Benzoyl 4-Phenoxypiperidines as Small-Molecule Inhibitors of the β-Catenin/B-Cell Lymphoma 9 Protein-Protein Interaction” (J Med Chem, 2021).

Series [1] is described as follows: Cytotoxicity against human MCF-10A cells assessed as reduction in cell growth incubated for 72 hrs by MTS assay. The format is toxicity, cell-based.
Series [2] is described as follows: Drug uptake in human MDA-MB-231 cells at 2 uM incubated at 37 degree C measured after 6 hrs by HPLC analysis. The following applies: mda-mb-231, 6 h. The format is ADME, cell-based.
The subject of the next series is HCT-116. Briefly: Antiproliferative activity against beta-catenin signalling overexpressing human HCT-116 cells assessed as reduction in cell growth incubated for 72 hrs by MTS assay. The format is functional, cell-based. The following applies: HCT-116, 72 h.
A further series deals with MDA-MB-231. Briefly: Antiproliferative activity against beta-catenin signalling overexpressing human MDA-MB-231 cells assessed as reduction in cell growth incubated for 72 hrs by MTS assay. The format is functional, cell-based. The following applies: MDA-MB-231, 72 h.
Series [3] addresses T1, beta-catenin-B-cell lymphoma 9 protein complex (Homo sapiens, UniProt P35222).
T1 sequence (P35222 whole entry): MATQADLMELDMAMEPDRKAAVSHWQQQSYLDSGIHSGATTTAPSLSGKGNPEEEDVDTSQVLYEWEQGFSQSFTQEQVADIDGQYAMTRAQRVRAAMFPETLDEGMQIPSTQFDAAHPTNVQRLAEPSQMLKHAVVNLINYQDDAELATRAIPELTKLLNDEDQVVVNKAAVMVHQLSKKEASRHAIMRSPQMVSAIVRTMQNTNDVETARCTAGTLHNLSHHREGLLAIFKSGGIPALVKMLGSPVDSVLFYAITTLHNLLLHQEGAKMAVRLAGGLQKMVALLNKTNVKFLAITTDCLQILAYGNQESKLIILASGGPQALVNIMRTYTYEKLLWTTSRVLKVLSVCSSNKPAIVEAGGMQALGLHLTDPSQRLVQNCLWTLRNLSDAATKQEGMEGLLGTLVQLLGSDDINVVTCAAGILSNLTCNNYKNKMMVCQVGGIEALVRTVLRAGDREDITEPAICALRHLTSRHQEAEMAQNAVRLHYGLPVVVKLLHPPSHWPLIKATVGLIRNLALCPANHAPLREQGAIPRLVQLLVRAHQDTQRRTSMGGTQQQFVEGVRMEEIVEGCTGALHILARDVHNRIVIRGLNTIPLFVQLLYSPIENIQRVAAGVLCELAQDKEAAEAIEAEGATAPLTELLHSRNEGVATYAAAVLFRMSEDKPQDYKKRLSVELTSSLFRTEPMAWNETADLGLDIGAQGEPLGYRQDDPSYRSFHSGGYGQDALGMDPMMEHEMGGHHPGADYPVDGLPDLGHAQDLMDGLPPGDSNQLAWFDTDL
T1 sequence (O00512 whole entry): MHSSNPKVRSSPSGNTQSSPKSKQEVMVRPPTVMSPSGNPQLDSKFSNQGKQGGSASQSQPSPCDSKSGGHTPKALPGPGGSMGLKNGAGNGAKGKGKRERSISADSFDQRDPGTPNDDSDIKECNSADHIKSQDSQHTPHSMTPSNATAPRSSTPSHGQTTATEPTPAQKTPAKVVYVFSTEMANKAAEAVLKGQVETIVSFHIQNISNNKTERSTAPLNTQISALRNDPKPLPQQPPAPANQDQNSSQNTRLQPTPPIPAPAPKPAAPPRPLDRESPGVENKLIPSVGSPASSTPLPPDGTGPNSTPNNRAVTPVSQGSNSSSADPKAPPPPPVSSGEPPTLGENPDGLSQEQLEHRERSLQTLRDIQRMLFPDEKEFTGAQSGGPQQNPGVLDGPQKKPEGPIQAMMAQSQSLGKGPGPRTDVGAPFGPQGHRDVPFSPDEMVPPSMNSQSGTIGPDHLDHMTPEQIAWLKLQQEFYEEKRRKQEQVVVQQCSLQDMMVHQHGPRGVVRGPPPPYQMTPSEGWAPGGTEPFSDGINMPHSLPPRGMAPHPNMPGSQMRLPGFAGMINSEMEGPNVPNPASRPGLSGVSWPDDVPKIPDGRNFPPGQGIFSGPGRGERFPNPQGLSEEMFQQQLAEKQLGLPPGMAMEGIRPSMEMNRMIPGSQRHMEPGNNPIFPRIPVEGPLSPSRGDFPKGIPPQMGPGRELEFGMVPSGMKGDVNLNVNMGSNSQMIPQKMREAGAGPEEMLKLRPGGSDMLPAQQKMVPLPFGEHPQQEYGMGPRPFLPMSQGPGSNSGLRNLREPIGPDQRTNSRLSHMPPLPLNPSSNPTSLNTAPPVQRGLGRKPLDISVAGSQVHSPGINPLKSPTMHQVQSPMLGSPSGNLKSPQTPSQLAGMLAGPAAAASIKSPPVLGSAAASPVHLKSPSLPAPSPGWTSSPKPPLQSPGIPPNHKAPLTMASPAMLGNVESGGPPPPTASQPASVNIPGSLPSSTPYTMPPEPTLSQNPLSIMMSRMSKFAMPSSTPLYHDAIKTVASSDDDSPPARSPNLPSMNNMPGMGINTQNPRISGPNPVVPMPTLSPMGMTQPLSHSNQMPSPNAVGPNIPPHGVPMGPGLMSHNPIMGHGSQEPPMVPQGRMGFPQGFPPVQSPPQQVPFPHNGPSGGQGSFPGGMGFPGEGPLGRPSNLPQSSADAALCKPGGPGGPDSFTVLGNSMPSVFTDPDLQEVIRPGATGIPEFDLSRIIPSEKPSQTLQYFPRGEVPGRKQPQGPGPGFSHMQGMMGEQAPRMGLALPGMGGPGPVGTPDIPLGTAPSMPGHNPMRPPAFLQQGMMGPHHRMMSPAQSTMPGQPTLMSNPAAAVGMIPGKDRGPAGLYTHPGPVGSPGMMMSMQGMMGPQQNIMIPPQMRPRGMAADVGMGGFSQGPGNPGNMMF
Briefly: Inhibition of full length beta-catenin (1 to 781 residues) (unknown origin) expressed in Escherichia coli BL21 (DE3)/N-terminal biotinylated human BCL9 HD2 (350 to 375 residues) protein-protein interaction incubated for 1 hr by Alphascreen assay.

Series [4] is described as follows: Inhibition of full length beta-catenin D145A mutant/N-terminal biotinylated human BCL9 HD2 (350 to 375 residues) protein-protein interaction in human SW480 cells incubated for 1 hr by Alphascreen assay. Type of series: cell-based. (Bead proximity is the source of the signal in Alpha formats.)
The target of series [5] is T1, beta-catenin-B-cell lymphoma 9 protein complex. Briefly: Inhibition of full length beta-catenin (1 to 781 residues) (unknown origin) expressed in Escherichia coli BL21 (DE3)/N-terminal biotinylated human BCL9 HD2 (350 to 375 residues) protein-protein interaction assessed as inhibition constant incubated for 1 hr by Alphascreen assay.
Series [6] is described as follows: Inhibition of Wnt/beta-catenin D145A/E155A mutant transactivation signalling in human HEK293 cells transfected with TOPFlash reporter gene incubated for 24 hrs by TOPFlash luciferase assay. The format is cell-based. The following applies: HEK293, 24 h.
A further series concerns MDA-MB-468. Briefly: Antiproliferative activity against beta-catenin signalling overexpressing human MDA-MB-468 cells assessed as reduction in cell growth incubated for 72 hrs by MTS assay. The format is functional, cell-based. The following applies: MDA-MB-468, 72 h. (Tetrazolium dyes change colour on reduction, which living cells bring about.)

One may read the IC50 as the concentration at which inhibition is half-maximal. What is called Ki is a dissociation constant, usually derived from enzyme kinetics or from competition with a known ligand. On to `CC(C)(C)C1CCC(c2cc(C(=O)N3CCC(Oc4cc(N5CCNCC5)ccc4C#N)CC3)ccc2O[C@H]2CCNC2)CC1.Cl.Cl` (mixture of isomers; cis), for which the IC50 at 72 h in [1] was determined as 18 µM. In series [2], this compound returned a Drug uptake of 88 µM. The IC50 in the series on HCT-116 was determined as 9.7 µM; with MDA-MB-231, 4.1 µM; in series [3] it was 1.2 µM; in [6], 24 µM; in the series with MDA-MB-468 it was 3.9 µM. The Ki was found to be 6.9 µM in series [4] and 0.96 µM in [5].
